Assay results from ChEMBL document CHEMBL1159352, “Reaction of irofulven with zinc and acid” (J Nat Prod, 2003).

Tested on: HL-60
Assay: Cytotoxicity against human HL60 cells after 48 hrs by trypan blue exclusion assay
Assay type: functional, cell-based
Settings: HL-60, 48 h

SMILES | IC50 [µM]
C=C1C(C)=Cc2c(O)c(C)c(CCOC(C)=O)c(C)c21 | 110
CC1=C(CO)c2c(C)c(CCO)c(C)c(O)c2C1 | 120
C=C1C(C)=Cc2c(O)c(C)c(CCO)c(C)c21 | 130
CC1=C(CO)c2c(C)c(CCO)c(C)c(O)c2C1O (stereo not given) | 114
CC1=C2C(=C[C@@](C)(CO)[C@@H]2O)C(=O)[C@](C)(O)C12CC2 [ILLUDIN] | 0.003
